Data reported in BindingDB's records for doi:10.1016/s0960-894x(02)00627-3 (Keio University, 2002).

Columns and labels:
[1] = molecular target: alpha-L-fucosidase (Bos taurus); assay: Inhibition of bovine kidney alpha-L-fucosidase
[2] = molecular target: alpha-L-fucosidase (Bos taurus); assay: Binding affinity against alpha-L-fucosidase in bovine kidney was determined
[3] = molecular target: alpha-L-fucosidase (Bos taurus); assay: as above; remark: listed apart in the source

| Structure (SMILES) | IC50 [1] [nM] | Ki [2] [nM] | Ki [3] [nM] |
| --- | --- | --- | --- |
| CCCCNC1CC(C)C(O)C(O)C1O [(1R,2S,3S)-4-Butylamino-6-methyl-cyclohexane-1,2,3-triol] | 920 | 74 | – |
| CC1CC(NCc2ccccc2)C(O)C(O)C1O [(1R,2S,3S)-4-Benzylamino-6-methyl-cyclohexane-1,2,3-triol] | 1000 | – | 69 |
| CCCCCCCCCNC1CC(C)C(O)C(O)C1O [(1S,2S,3R)-4-Methyl-6-nonylamino-cyclohexane-1,2,3-triol] | 240 | 110 | – |
| CCNC1CC(C)C(O)C(O)C1O [(1R,2S,3S)-4-Ethylamino-6-methyl-cyclohexane-1,2,3-triol] | 21000 | 180 | – |
| CC1CC2N=C(Nc3ccccc3)OC2C(O)C1O [(6R,7S,7aS)-5-Methyl-2-phenylamino-3a,4,5,6,7,7a-hexahydro-benzooxazole-6,7-diol] | 7600 | – | – |
| CCCCCCCNC1CC(C)C(O)C(O)C1O [(1R,2S,3S)-4-Heptylamino-6-methyl-cyclohexane-1,2,3-triol] | 270 | 48 | – |
| CC1CC2N=C(NCc3ccccc3)OC2C(O)C1O [(6R,7S,7aS)-2-Benzylamino-5-methyl-3a,4,5,6,7,7a-hexahydro-benzooxazole-6,7-diol] | 72000 | – | – |
| CC1CC(NCCc2ccccc2)C(O)C(O)C1O [(1S,2S,3R)-4-Methyl-6-phenethylamino-cyclohexane-1,2,3-triol] | 240 | 32 | – |
| CCCCNC1=NC2CC(C)C(O)C(O)C2O1 [(6R,7S,7aS)-2-Butylamino-5-methyl-3a,4,5,6,7,7a-hexahydro-benzooxazole-6,7-diol] | 140000 | – | – |
